Data from US20220289753A1, “SHP2 INHIBITORS” (IRBM S.P.A., priority 2019, published 2022).
pIC50: −log10 of the molar value.

Experiments:
[1] = system: ERK phosphorylation in KYSE-520 cells; assay: Phospho-ERK cellular assay (Advanced phospho-ERK1/2 (Thr202/Tyr204) TR-FRET kit); type: cell-based; conditions: Homo sapiens, KYSE-520, 2 h, KYSE-520 cells, 2 h at 37° C., TR-FRET; read-out: pERK IC50
Outline: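 IC50 values are inflection points of four-parameter logistic fits of percent activity against compound dilution. Compound exposure lasted 2 h at 37° C in KYSE-520 cells. Lysates were probed overnight with Eu-cryptate/d2 antibodies to ERK1/2 phosphorylated at Thr202/Tyr204, so reduced TR-FRET indicates SHP2 inhibition.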

[2] = target: T1, SHP-2 enzyme (Met1-Leu525) (Homo sapiens, UniProt Q06124); assay: SHP2 inhibition enzymatic assay (DiFMUP substrate, IRS1 peptide activation); type: biochemical; conditions: SHP2 wt; activated by 500 nM IRS1 peptide; 75 μM DiFMUP substrate
T1 construct: synthetized by Origene, Met1-Leu525, cat #TP750155; purchased Origene TP750155
T1 sequence (Q06124 1-525): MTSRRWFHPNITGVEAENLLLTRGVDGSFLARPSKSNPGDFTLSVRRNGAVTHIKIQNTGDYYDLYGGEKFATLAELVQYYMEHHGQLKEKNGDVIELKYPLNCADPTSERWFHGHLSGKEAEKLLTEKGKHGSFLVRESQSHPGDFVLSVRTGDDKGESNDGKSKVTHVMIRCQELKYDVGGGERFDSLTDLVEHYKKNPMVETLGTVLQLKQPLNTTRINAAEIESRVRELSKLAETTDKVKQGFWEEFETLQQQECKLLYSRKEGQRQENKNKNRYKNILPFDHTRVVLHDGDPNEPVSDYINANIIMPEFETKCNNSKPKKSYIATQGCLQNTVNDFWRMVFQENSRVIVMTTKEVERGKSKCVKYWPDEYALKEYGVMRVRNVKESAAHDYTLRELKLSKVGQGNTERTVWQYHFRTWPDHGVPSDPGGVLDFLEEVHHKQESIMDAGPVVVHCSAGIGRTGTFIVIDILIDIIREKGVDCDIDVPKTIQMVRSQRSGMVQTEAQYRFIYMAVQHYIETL
Outline: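 SHP-2 (Met1-Leu525, 0.5 nM final) preincubated 30 min with compounds and IRS1 activating peptide in HEPES pH 7.2 buffer with NaCl, KCl, EDTA, tween-20, 5 mM DTT. DiFMUP then added for 30 min at room temperature and fluorescence read. IC50 from four-parameter logistic fit of % inhibition.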

Structure (SMILES)	pIC50 [1]	pIC50 [2]
COc1cc(Sc2cnc3[nH]c(N4CCC5(CC4)Cc4ccccc4[C@H]5N)nc3n2)c(Cl)cn1 [Example 242, (S)-1′-(5-((5-chloro-2-methoxypyridin-4-yl)thio)-1H-imidazo[4,5-b]pyrazin-2-yl)-1,3-dihydrospiro[indene-2,4′-piperidin]-1-amine]	5.30 to 6.00	5.52 to 6.30
N[C@@H]1c2ccccc2CC12CCN(c1cc3nc(Sc4cccc(Cl)c4Cl)cnc3[nH]1)CC2 [Example 243, (S)-1′-(2-((2,3-dichlorophenyl)thio)-5H-pyrrolo[2,3-b]pyrazin-6-yl)-1,3-dihydrospiro[indene-2,4′-piperidin]-1-amine]	> 6.00	> 6.30
CCNc1nccc(Sc2cnc3[nH]c(N4CCC5(CC4)Cc4ccccc4[C@H]5N)nc3n2)c1Cl [Example 246, (S)-1′-(5-((3-chloro-2-(ethylamino)pyridin-4-yl)thio)-1H-imidazo[4,5-b]pyrazin-2-yl)-1,3-dihydrospiro[indene-2,4′-piperidin]-1-amine]	< 5.30	> 6.30
N[C@@H]1c2ccccc2CC12CCN(c1nc3nc(Sc4ccnnc4Cl)cnc3[nH]1)CC2 [Example 247, (S)-1′-(5-((3-chloropyridazin-4-yl)thio)-1H-imidazo[4,5-b]pyrazin-2-yl)-1,3-dihydrospiro[indene-2,4′-piperidin]-1-amine]	> 6.00	> 6.30
N[C@@H]1c2ccccc2CC12CCN(c1nc3nc(N4CCCc5ncccc54)cnc3[nH]1)CC2 [Example 249, (S)-1′-(5-(3,4-dihydro-1,5-naphthyridin-1(2H)-yl)-1H-imidazo[4,5-b]pyrazin-2-yl)-1,3-dihydrospiro[indene-2,4′-piperidin]-1-amine]	> 6.00	> 6.30
COc1ncc(CN)cc1Sc1cnc2[nH]c(N3CCC4(CC3)Cc3ccccc3[C@H]4N)nc2n1 [Example 250, (1S)-1′-[5-[5-(aminomethyl)-2-methoxy-pyridin-3-yl]sulfanyl-1H-imidazo[4,5-b]pyrazin-2-yl]spiro[1,3-dihydroindene-2,4′-piperidine]-1-amine]	5.30 to 6.00	< 5.52
Nc1nccc(Sc2cnc3[nH]c(N4CCC5(CC4)Cc4cc(CO)ccc4[C@H]5N)nc3n2)c1Cl [Example 252, (S)-(1-amino-1′-(5-((2-amino-3-chloropyridin-4-yl)thio)-1H-imidazo[4,5-b]pyrazin-2-yl)-1,3-dihydrospiro[indene-2,4′-piperidin]-5-yl)methanol]	> 6.00	> 6.30
COC(=O)c1c(N2CCC3(CC2)Cc2ccccc2[C@H]3N)[nH]c2ncc(Sc3cccc(Cl)c3Cl)nc12 [Example 253, methyl (S)-6-(1-amino-1,3-dihydrospiro[indene-2,4′-piperidin]-1′-yl)-2-((2,3-dichlorophenyl)thio)-5H-pyrrolo[2,3-b]pyrazine-7-carboxylate]	> 6.00	> 6.30
Cc1ccnc2c(Sc3cnc4[nH]c(N5CCC6(CC5)Cc5ccccc5[C@H]6N)nc4n3)ccnc12 [Example 254, (S)-1′-(5-((8-methyl-1,5-naphthyridin-4-yl)thio)-1H-imidazo[4,5-b]pyrazin-2-yl)-1,3-dihydrospiro[indene-2,4′-piperidin]-1-amine]	> 6.00	> 6.30
Nc1nccc(Sc2cnc3[nH]c(N4CCC5(CC4)Cc4ccc(C6CC6)cc4[C@H]5N)nc3n2)c1Cl [Example 257, (S)-1′-(5-((2-amino-3-chloropyridin-4-yl)thio)-1H-imidazo[4,5-b]pyrazin-2-yl)-6-cyclopropyl-1,3-dihydrospiro[indene-2,4′-piperidin]-1-amine]	> 6.00	> 6.30

The remaining lines, values ahead:

pIC50 [1]	pIC50 [2]	Structure (SMILES)
< 5.30	> 6.30	N[C@@H]1c2ccccc2CC12CCN(c1nc3nc(Sc4ccc[nH]c4=O)cnc3[nH]1)CC2 [Example 238, (S)-3-((2-(1-amino-1,3-dihydrospiro[indene-2,4′-piperidin]-1′-yl)-1H-imidazo[4,5-b]pyrazin-5-yl)thio)pyridin-2(1H)-one]
5.30 to 6.00	> 6.30	COc1nccc(Sc2cnc3[nH]c(N4CCC5(CC4)Cc4ccccc4[C@H]5N)nc3n2)c1Cl [Example 239, (S)-1′-(5-((3-chloro-2-methoxypyridin-4-yl)thio)-1H-imidazo[4,5-b]pyrazin-2-yl)-1,3-dihydrospiro[indene-2,4′-piperidin]-1-amine]
5.30 to 6.00	> 6.30	N#Cc1c[nH]c2nccc(Sc3cnc4[nH]c(N5CCC6(CC5)Cc5ccccc5[C@H]6N)nc4n3)c12 [Example 240, (S)-4-((2-(1-amino-1,3-dihydrospiro[indene-2,4′-piperidin]-1′-yl)-1H-imidazo[4,5-b]pyrazin-5-yl)thio)-1H-pyrrolo[2,3-b]pyridine-3-carbonitrile]
5.30 to 6.00	5.52 to 6.30	N[C@@H]1c2ccccc2CC12CCN(c1nc3nc(Sc4cc(O)ncc4Cl)cnc3[nH]1)CC2 [Example 241, (S)-4-((2-(1-amino-1,3-dihydrospiro[indene-2,4′-piperidin]-1′-yl)-1H-imidazo[4,5-b]pyrazin-5-yl)thio)-5-chloropyridin-2-ol]
> 6.00	> 6.30	Nc1nccc(Sc2cnc3[nH]c(N4CCC5(CC4)Cc4ccc(CO)cc4[C@H]5N)nc3n2)c1Cl [Example 244, (S)-(1-amino-1′-(5-((2-amino-3-chloropyridin-4-yl)thio)-1H-imidazo[4,5-b]pyrazin-2-yl)-1,3-dihydrospiro[indene-2,4′-piperidin]-6-yl)methanol]
> 6.00	> 6.30	Nc1nccc(Sc2cnc3[nH]c(N4CCC5(CC4)Cc4ccc(CF)cc4[C@H]5N)nc3n2)c1Cl [Example 245, (S)-1′-(5-((2-amino-3-chloropyridin-4-yl)thio)-1H-imidazo[4,5-b]pyrazin-2-yl)-6-(fluoromethyl)-1,3-dihydrospiro[indene-2,4′-piperidin]-1-amine]
5.30 to 6.00	> 6.30	N[C@@H]1c2ccccc2CC12CCN(c1[nH]c3ncc(Sc4cccc(Cl)c4Cl)nc3c1Cl)CC2 [Example 248, (S)-1′-(7-chloro-2-((2,3-dichlorophenyl)thio)-5H-pyrrolo[2,3-b]pyrazin-6-yl)-1,3-dihydrospiro[indene-2,4′-piperidin]-1-amine]
5.30 to 6.00	> 6.30	N[C@@H]1c2ccccc2CC12CCN(c1nc3nc(Sc4cc(Cl)nn5ccnc45)cnc3[nH]1)CC2 [Example 251, (S)-1′-(5-((6-chloroimidazo[1,2-b]pyridazin-8-yl)thio)-1H-imidazo[4,5-b]pyrazin-2-yl)-1,3-dihydrospiro[indene-2,4′-piperidin]-1-amine]
> 6.00	> 6.30	Cn1cc2c(Sc3cnc4[nH]c(N5CCC6(CC5)Cc5ccccc5[C@H]6N)nc4n3)ccnc2n1 [Example 255, (S)-1′-(5-((2-methyl-2H-pyrazolo[3,4-b]pyridin-4-yl)thio)-1H-imidazo[4,5-b]pyrazin-2-yl)-1,3-dihydrospiro[indene-2,4′-piperidin]-1-amine]
< 5.30	> 6.30	N#Cc1ccc2c(c1)[C@@H](N)C1(CCN(c3nc4nc(Sc5ccnc(N)c5Cl)cnc4[nH]3)CC1)C2 [Example 256, (S)-1-amino-1′-(5-((2-amino-3-chloropyridin-4-yl)thio)-1H-imidazo[4,5-b]pyrazin-2-yl)-1,3-dihydrospiro[indene-2,4′-piperidine]-6-carbonitrile]
